In patent publication US20220096706A1, “ELECTROSPUN NANOFIBER-BASED DRESSINGS AND METHODS OF MANUFACTURE AND USE THEREOF” (BOARD OF REGENTS OF THE UNIVERSITY OF NEBRASKA, priority 2019, published 2022):
Non-standard residues stand in square brackets, D forms with d. No end group written: not given here. Bip = N[C@@H](Cc1ccc(-c2ccccc2)cc1)C(=O)O

Tests used:
MRSA USA300 biofilm = type: in vivo, type II diabetic mice; details: 24 hours MRSA inoculation and subsequent 24 hour mupirocin 2% treatment
Description: Briefly, MRSA was grown in TSB overnight. Subsequently, 100 μL bacterial strain was pipetted into 4 mL fresh TSB medium for 3 hours followed by PBS washing for three times. Then, the bacterial concentration was adjusted to 1×10^8 CFU/mL and stored in the ice box before use. One hundred female 005314-TALLYHO/JngJ diabetic defective mice (10-11 weeks, 30-35 g, GLU>200 mg/dL) fed with standard pellet diet and water were used.
The biofilm was established in 005314-TALLYHO/JngJ mice excisional wounds. Two 6 mm-diameter full thickness wounds were created on the back of a mouse using a disposable biopsy punch (Integra Miltex®, Kai Medical, USA) and fixed with a wound splint (Grace Bio-labs, Inc, Bend, Oreg.). The wounds were all inoculated with 10 μL of 1×10^8 CFU/mL MRSA instantly after surgery, and mupirocin 2% was applied to treat the wounds at day 2 (24 hours after surgery). Then, the surrounding and wound tissue was collected using an 8 mm-diameter punch and the biofilm was confirmed by CFU count, LIVE/DEAD® staining and SEM observation.
The biofilm formation was performed as above-mentioned. The mice were then divided into control groups and peptide groups. Control groups' wounds were treated with 6-mm diameter F127-PCL core-shell nanofiber discs alone. […] All the dishes were inoculated in a 37° C. microbial incubator for 18 hours and the CFU numbers were counted. […]

MRSA = assay: Antibiotic agar inhibition (MRSA inhibition zone) test; type: cell-based, Staphylococcus aureus; details: FIG. 6E
MRSA biofilms = assay: In vivo antibiofilm efficacy test, MRSA biofilm wounds (B6.BKS(D)-Leprdb/J mice); set-up: species or system type II diabetic mice; details: 24 hours and 48 hours inoculation followed by 24 hour treatment of 2% mupirocin ointment
Description: A biofilm-containing chronic wound model was established. Briefly, MRSA was grown in TSB overnight. Subsequently, 100 μL of bacterial strain was pipetted into 4 mL of fresh TSB medium and cultivated for 3 hours followed by PBS washing for three times. Then, the bacterial concentration was adjusted to 1×10^8 CFU/mL and stored in the ice box before use. Nine […] 000697-B6.BKS(D)-Leprdb/J diabetic defective mice (male, 10-11 weeks, 50-55 g, GLU>200 mg/dL) fed with standard pellet diet and water were used.
The biofilm was established in 000697-B6.BKS(D)-Leprdb/J mice excisional wounds. […]
After the biofilm formation was performed, F127/17BIPHE2-PCL-S core-shell nanofiber membranes or Janus-type dressings were put on the wound, different dressing changes strategies were applied to treat the biofilm formed wound. […] All the dishes were inoculated in a 37° C. microbial incubator for 18 hours, and the CFU numbers were counted.
To further evaluate the anti-biofilm efficacy, MRSA biofilms were established in type II diabetic mice wounds (FIG. 21). […] The CFU of MRSA biofilms (10^10-10^12 CFU/g) formed after 24 hours and 48 hours of bacteria inoculation and removal of planktonic bacteria was quantified (FIG. 21B). […]

S. aureus USA300 = details: compared to either LL-37 or GF-17; cited from earlier work
[1] = system: Staphylococcus aureus USA300; details: cited from earlier work
[2] = in biofilm; Lawrence, et al. (1994); cited from earlier work
[3] = system: resistant ESKAPE pathogens, including persisters and biofilms; details: cited from earlier work

C/C(=C\C(=O)OCCCCCCCCC(=O)O)C[C@@H]1OC[C@H](C[C@@H]2O[C@H]2[C@@H](C)[C@H](C)O)[C@@H](O)[C@H]1O [mupirocin 2%, mupirocin]
bacteria resided on surgical site and surrounding tissues (MRSA USA300 biofilm): 10^10 CFU/g
killing of planktonic bacteria in antibiotic agar inhibition test (MRSA): kill the planktonic bacteria very effectively
CFU of MRSA biofilms (MRSA biofilms): 10^10-10^12 CFU/g

GX1KRLVQRLKDX2LRNLV, wherein X1 and X2 are biphenylalanines (SEQ ID NO: 2) (G[Bip]KRLVQRLKD[Bip]LRNLV) [17BIPHE2, molecularly engineered human cathelicidin LL-37 peptide]
protection of wax moths from S. aureus USA300 infection (S. aureus USA300): optimized protection

LL-37
inhibition of bacterial attachment / disruption of preformed biofilms ([1]; Mishra, et al. (2016)): unable to inhibit bacterial attachment or disrupt preformed biofilms
inhibition of biofilm growth of Staphylococcus aureus USA300 ([1]; in vitro, Haisma, et al. (2014)): only at a low concentration

RRRWWWWV; SEQ ID NO: 7 (Antimicrobial peptide) [W379, peptide with merely eight amino acids]
diffusion coefficient of peptides (D) [2]: 3.1×10^−12 m^2/s
antimicrobial activity against resistant ESKAPE pathogens [3]: antimicrobial activity
